One data set has as its system Alteromonas. The data set is described as follows: Antimicrobial activity against Alteromonas at 50 ug/disk after 48 hrs. As to conditions: read-out: IZ. The data set is classed as functional.
For data set [1], the system named is Corynebacterium. Nature of the data set: Antimicrobial activity against Corynebacterium at 50 ug/disk after 48 hrs. As to conditions: read-out: IZ. It counts as functional.
The next data set relates to Carassius auratus. The data set is described as follows: Toxicity against goldfish at 500 ug. The data set is classed as organism-based. Conditions: in vivo.
The test system of data set [2] is Bacillus. Nature of the data set: Antimicrobial activity against Bacillus at 50 ug/disk after 48 hrs. It counts as functional. Conditions: read-out: IZ.
Data set [3] deals with Flavobacterium. The data set is described as follows: Antimicrobial activity against Flavobacterium at 50 ug/disk after 48 hrs. The data set is classed as functional. Conditions: read-out: IZ.
The subject of a further data set is Vibrio. Nature of the data set: Antimicrobial activity against Vibrio at 50 ug/disk after 48 hrs. As to conditions: read-out: IZ. The data set is classed as functional.
Data set [4] concerns Corynebacterium. Nature of the data set: Antimicrobial activity against Corynebacterium at 10 ug/disk after 48 hrs. The data set is classed as functional. Conditions: read-out: IZ.
The test system of data set [5] is Flavobacterium. The data set is described as follows: Antimicrobial activity against Flavobacterium at 10 ug/disk after 48 hrs. The data set is classed as functional. Conditions: read-out: IZ.
Data set [6] concerns Bacillus. Nature of the data set: Antimicrobial activity against Bacillus at 10 ug/disk after 48 hrs. It counts as functional. Conditions: read-out: IZ.

Where only a bound is given, the exact number is not on record here.

For 1 compound, zone of inhibition and Activity results are on record in ChEMBL document CHEMBL1158907, “2,3,4-Tribromopyrrole from the Marine Polychaete Polyphysia crassa” (J Nat Prod, 1990).

For the compound `Brc1c[nH]c(Br)c1Br`, the zone of inhibition at 50 µg/disc in the data set on Alteromonas, with Corynebacterium [1], with Bacillus [2], with Flavobacterium [3] and with Vibrio was above 5 mm throughout. For the same compound, the Activity entry with Carassius auratus is listed as “Non-toxic”. Moreover, the zone of inhibition at 10 µg/disc in the data set with Corynebacterium [4], in the data set with Flavobacterium [5] and in the data set with Bacillus [6] was 2 mm in each case.
